The assay has as its target human PDE4B1 (Homo sapiens (Human), UniProt Q07343). Briefly: TR-FRET assay using the LANCE Ultra cAMP kit to determine the activity of hPDE4B1. Format: biochemical. The settings on record: IC50 inhibition of PDE4B, mean. The source says:
TR-FRET Assay Using the LANCE® Ultra cAMP Kit to Determine the Activity of hPDE4B1
The effects of the compounds on the activity of the human PDE4B1 was quantified by measuring the production of 5′AMP from cAMP using a human recombinant enzyme expressed in Sf9 cells and the LANCE® Ultra cAMP kit, a TR-FRET detection method from PerkinElmer. The human PDE4B1 enzyme was purchased from SignalChem Lifesciences (Catalog# P92-31BG, Lot# H296-2).
The test compound, reference compound or water (control) was mixed with the enzyme (0.96 U) in a reaction buffer containing 50 mM Tris-HCl, 50 mM MgCl2 and 5 mM DTT (pH 8.5). Thereafter, the reaction was initiated by addition of 500 nM cAMP (substrate) and the mixture was incubated for 30 minutes at room temperature. For control basal measurements, the enzyme was omitted from the reaction mixture. After 30 minutes, the reaction was stopped and diluted by a factor of 100 with the reaction buffer supplemented with 500 μM IBMX. The fluorescence donor (europium chelate-labeled cAMP) and the fluorescence acceptor (anti-cAMP antibody labeled with the ULight™ dye) were then added together with 500 μM IBMX to a 10 μl aliquot. After 60 minutes, the fluorescence transfer corresponding to the amount of residual cAMP was measured at λex=337 nm, λem=620 nm and λem=665 nm using a microplate reader (PHERAstar, BMG). The enzyme activity was determined by dividing the signal measured at 665 nm by that measured at 620 nm (ratio) multiplied by 10000. The results were expressed as percent inhibition of the control enzyme activity. IC50 values (IC50=concentration causing a half-maximal inhibition of control specific activity) were derived from dose response measurements with ten different concentrations (n=3; N=1-3).
Several compounds according to the invention are tested with above mentioned assay.
For orientation: Time-resolved FRET reads energy transfer from a long-lived donor to a nearby acceptor.

The structures appear in SMILES notation. Where a name gives a salt, the structure may show the parent alone. Bounds are passed on as bounds.

human PDE4B1, sequence (Q07343 whole entry): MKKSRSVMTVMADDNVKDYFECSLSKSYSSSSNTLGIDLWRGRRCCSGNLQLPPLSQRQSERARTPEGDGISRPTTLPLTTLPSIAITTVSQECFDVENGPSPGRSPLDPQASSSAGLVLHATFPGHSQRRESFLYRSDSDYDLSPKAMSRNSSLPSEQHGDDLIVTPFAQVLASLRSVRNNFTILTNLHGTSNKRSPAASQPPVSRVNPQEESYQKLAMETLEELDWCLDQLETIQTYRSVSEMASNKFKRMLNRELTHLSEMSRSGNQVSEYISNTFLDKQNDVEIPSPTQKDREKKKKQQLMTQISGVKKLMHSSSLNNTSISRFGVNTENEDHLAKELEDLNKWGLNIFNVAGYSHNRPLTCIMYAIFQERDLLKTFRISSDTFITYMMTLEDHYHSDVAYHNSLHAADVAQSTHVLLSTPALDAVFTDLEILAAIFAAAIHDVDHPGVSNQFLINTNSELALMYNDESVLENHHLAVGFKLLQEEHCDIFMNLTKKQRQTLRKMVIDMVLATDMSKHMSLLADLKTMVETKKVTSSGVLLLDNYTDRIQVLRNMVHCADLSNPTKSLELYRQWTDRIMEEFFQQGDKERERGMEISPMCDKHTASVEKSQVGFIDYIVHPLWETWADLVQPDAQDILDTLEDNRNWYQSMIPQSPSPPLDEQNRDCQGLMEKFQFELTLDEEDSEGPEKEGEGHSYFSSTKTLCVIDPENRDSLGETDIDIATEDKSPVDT

As to `N[C@@H]1CCN(C(=O)c2ccc3c(c2)N(c2ncc(-c4ccccn4)cn2)CC32CC2)C1` [Compound 329, [(3R)-3-Amino-pyrrolidin-1-yl]-[1-(5-pyridin-2-yl-pyrimidin-2-yl)-spiro[1,2-dihydro-indole-3,1′-cyclopropane]-6-yl]-methanone], the IC50 was below 0.1 µM.

`CCc1ccnc(-c2cnc(N3CC4(CC4)c4ccc(C(=O)N5CCCC5)cc43)nc2)c1` [Compound 275, [1-[5-(4-Ethyl-pyridin-2-yl)-pyrimidin-2-yl]-spiro[1,2-dihydro-indole-3,1′-cyclopropane]-6-yl]-pyrrolidin-1-yl-methanone] registered an IC50 below 0.1 µM. The compound `CN(CCO)C(=O)c1ccc2c(c1)N(c1ncc(-c3cccc(O)c3)cn1)CC21CC1` [Compound 264, N-(2-Hydroxy-ethyl)-1-[5-(3-hydroxyphenyl)-pyrimidin-2-yl]-N-methyl-spiro[1,2-dihydro-indole-3,1′-cyclopropane]-6-carboxylic acid amide] came in with a 50% inhibitory concentration (IC50) below 0.1 µM. Under `CN(CCO)C(=O)c1ccc2c(c1)N(c1ncc(-c3nc(CO)cs3)cn1)CC21CC1` [Compound 357, N-(2-Hydorxy-ethyl)-1-[5-[4-(hydroxymethyl)-thiazol-2-yl]-pyrimidin-2-yl]-N-methyl-spiro[1,2-dihydro-indole-3,1′-cyclopropane]-6-carboxylic acid amide] stands below 0.1 µM; under `CN(CCO)C(=O)c1ccc2c(c1)N(c1ncc(-c3cn(C)cn3)cn1)CC21CC1` [Compound 323, N-(2-Hydroxy-ethyl)-N-methyl-1-[5-(1-methyl-1H-imidazol-4-yl)-pyrimidin-2-yl]-spiro[1,2-dihydro-indole-3,1′-cyclopropane]-6-carboxylic acid amide], below 0.1 µM; under `Nc1ccnc(-c2cnc(N3CC4(CC4)c4ccc(C(=O)N5C[C@H]6C[C@@H]5CN6)cc43)nc2)c1` [Compound 356, [1-[5-(4-Amino-pyridin-2-yl)-pyrimidin-2-yl]-spiro[1,2-dihydro-indole-3,1′-cylcopropane]-6-yl]-[(1R,4R)-2,5-diazabicyclo[2.2.1]heptan-2-yl]-methanone], below 0.1 µM. In turn, `O=C(c1ccc2c(c1)N(c1ncc(-c3cccc(O)c3)cn1)CC21CC1)N1CC2CC1CN2` (stereo not shown) [Compound 250, (2,5-Diazabicyclo[2.2.1]heptan-2-yl)-[1-[5-(3-hydroxyphenyl)-pyrimidin-2-yl]-spiro[1,2-dihydro-indole-3,1′-cyclopropane]-6-yl]-methanone] registered an IC50 below 0.1 µM. Under `COc1ccc(F)c(-c2cnc(N3CC4(CC4)c4ccc(C(=O)N(C)CCO)cc43)nc2)c1` [Compound 253, 1-[5-(2-Fluoro-5-methoxy-phenyl)-pyrimidin-2-yl]-N-(2-hydroxy-ethyl)-N-methyl-spiro[1,2-dihydro-indole-3,1′-cyclopropane]-6-carboxylic acid amide] stands below 0.1 µM; under `CC(=O)Nc1ccnc(-c2cnc(N3CC4(CC4)c4ccc(C(=O)N5CC6CC5CN6)cc43)nc2)c1` (stereo not shown) [Compound 279, N-(2-(2-(6′-(2,5-diazabicyclo[2.2.1]heptane-2-carbonyl)spiro[cyclopropane-1,3′-indolin]-1′-yl)pyrimidin-5-yl)pyridin-4-yl)acetamide.HCl], below 0.1 µM; under `O=C(O)CN1CCN(C(=O)c2ccc3c(c2)N(c2ncc(-c4ccccc4F)cn2)CC32CC2)CC1` [Compound 237, 2-[4-[1-[5-(2-Fluorophenyl)-pyrimidin-2-yl]-spiro[1,2-dihydro-indole-3,1′-cyclopropane]-6-carbonyl]-pieprazin-1-yl]-acetic acid], 0.1 to 1 µM. `CN(CCO)C(=O)c1ccc2c(c1)N(c1ncc(-c3cc([S+](C)[O-])ccn3)cn1)CC21CC1` (stereo not shown) [Compound 288, N-(2-Hydroxy-ethyl)-N-methyl-1-[5-[4-(methylsulfinyl)-pyridin-2-yl]-pyrimidin-2-yl]-spiro[1,2-dihydro-indole-3,1′-cyclopropane]-6-carboxylic acid amide]: the IC50 was below 0.1 µM.

On to `O=C(c1ccc2c(c1)N(c1ncc(-c3ccccc3F)cn1)CC21CC1)N1CCC2(CCCN2)C1` (stereo not shown) [Compound 226, (1,-Diazaspiro[4.4]nonan-7-yl)-[1-[5-(2-fluorophenyl)-pyrimidin-2-yl]-spiro[1,2-dihydro-indole-3,1′-cyclopropane]-6-yl]-methanone], for which the half-inhibitory concentration (IC50) is 0.1 to 1 µM. The value for `Cc1ccnc(-c2cnc(N3CC4(CC4)c4ccc(C(=O)N(C)C)cc43)nc2)c1` [Compound 299, N,N-Dimethyl-1-[5-(4-methyl-pyridin-2-yl)-pyrimidin-2-yl]-spiro[1,2-dihydro-indole-3,1′-cyclopropane]-6-carboxylic acid amide] was below 0.1 µM. The value for `CN(CCO)C(=O)c1ccc2c(c1)N(c1ncc(-c3ccc4c(c3)OCO4)cn1)CC21CC1` [Compound 219, 1-[5-(1,3-Benzodioxol-5-yl)-pyrimidin-2-yl]-N-(2-hydroxy-ethyl)-N-methyl-spiro[1,2-dihydro-indole-3,1′-cyclopropane]-6-carboxylic acid amide] was below 0.1 µM; that for `CN(CCO)C(=O)c1ccc2c(c1)N(c1ncc(-c3cccc(C4CC4)c3)cn1)CC21CC1` [Compound 267, 1-[5-(3-Cyclopropyl-phenyl)-pyrimidin-2-yl]-N-(2-hydroxy-ethyl)-N-methyl-spiro[1,2-dihydro-indole-3,1′-cyclopropane]-6-carboxylic acid amide] was below 0.1 µM. The value for `CN(CCO)C(=O)c1ccc2c(c1)N(c1ncc(-c3cc(C(N)=O)cs3)cn1)CC21CC1` [Compound 348, 1-[5-(4-Carbamoyl-thiophen-2-yl)-pyrimidin-2-yl]-N-(2-hydroxy-ethyl)-N-methyl-spiro[1,2-dihydro-indole-3,1′-cyclopropane]-6-carboxylic acid amide] was below 0.1 µM; that for `CN(CC(N)=O)C(=O)c1ccc2c(c1)N(c1ncc(-c3ccccn3)cn1)CC21CC1` [Compound 320, N-(2-amino-2-oxoethyl)-N-methyl-1′-(5-(pyridin-2-yl)pyrimidin-2-yl)spiro[cyclopropane-1,3′-indoline]-6′-carboxamide] was below 0.1 µM. In the case of `Cc1ccnc(-c2cnc(N3CC4(CC4)c4ccc(C(=O)N5CCNC(=O)C5)cc43)nc2)c1` [Compound 222, 4-[1-[5-(4-Methyl-pyridin-2-yl)-pyrimidin-2-yl]-spiro[1,2-dihydro-indole-3,1′-cyclopropane]-6-carbonyl]-piperazin-2-one], the IC50 is below 0.1 µM. Under `CC(=O)Oc1cccc(-c2cnc(N3CC4(CC4)c4ccc(C(=O)N(C)CCO)cc43)nc2)c1` [Compound 358, Acetic acid [3-[2-[6-[(2-hydroxy-ethyl)-methyl-carbamoyl]-spiro[1,2-dihydro-indole-3,1′-cyclopropane]-1-yl]-pyrimidin-5-yl]-phenyl]ester] stands below 0.1 µM. The value for `CN(CCO)C(=O)c1ccc2c(c1)N(c1ncc(-c3cccc(Cl)c3)cn1)CC21CC1` [Compound 273, 1-[5-(3-Chlorophenyl)-pyrimidin-2-yl]-N-(2-hydroxy-ethyl)-N-methyl-spiro[1,2-dihydro-indole-3,1′-cyclopropane]-6-carboxylic acid amide] was below 0.1 µM; that for `CN(CCO)C(=O)c1ccc2c(c1)N(c1ncc(-c3cc(S(C)(=O)=O)ccc3F)cn1)CC21CC1` [Compound 296, 1-[5-(2-Fluoro-5-methylsulfonyl-phenyl)-pyrimidin-2-yl]-N-(2-hydroxy-ethyl)-N-methyl-spiro[1,2-dihydro-indole-3,1′-cyclopropane]-6-carboxylic acid amide] was below 0.1 µM. In turn, `COC(=O)CN(C)C(=O)c1ccc2c(c1)N(c1ncc(-c3ccccc3F)cn1)CC21CC1` [Compound 246, 2-[[1-[5-(2-Fluorophenyl)-pyrimidin-2-yl]-spiro[1,2-dihydro-indole-3,1′-cyclopropane]-6-carbonyl]-methyl-amino]acetic acid methyl ester] returned an IC50 of 0.1 to 1 µM.

`CC(C)(O)c1ccnc(-c2cnc(N3CC4(CC4)c4ccc(C(=O)N5CCOCC5)cc43)nc2)c1` [Compound 294, [1-[5-[4-(1-Hydroxy-1-methyl-ethyl)-pyridin-2-yl]-pyrimidin-2-yl]-spiro[1,2-dihydro-indole-3,1′-cyclopropane]-6-yl]-morpholin-4-yl-methanone] yielded an IC50 below 0.1 µM. Under `CN(CCO)C(=O)c1ccc2c(c1)N(c1ncc(-c3cc(S(C)(=O)=O)ccn3)cn1)CC21CC1` [Compound 289, N-(2-Hydroxy-ethyl)-N-methyl-1-[5-(4-methylsulfonyl-pyridin-2-yl)-pyrimidin-2-yl]-spiro[1,2-dihydro-indole-3,1′-cyclopropane]-6-carboxylic acid amide] stands below 0.1 µM; under `CN(CCO)C(=O)c1ccc2c(c1)N(c1ncc(-c3cc(NCC4CC4)ccn3)cn1)CC21CC1` [Compound 319, 1-[5-[4-(Cyclopropyl-methylamino)-pyridin-2-yl]-pyrimidin-2-yl]-N-(2-hydroxy-ethyl)-N-methyl-spiro[1,2-dihydro-indole-3,1′-cyclopropane]-6-carboxylic acid amide], below 0.1 µM.

As usually defined, the IC50 is the concentration that inhibits the measured activity by half. Read a high IC50 as weaker potency.

The record behind these values is patent publication US10189854B2, “Substituted pyrimidine compounds” (Grünenthal GmbH, priority 2014, dated 2019).
